From patent US5622962A, “5α-reductase inhibitors” (priority 1995, dated 1997)

Legend:
[1] = biological target: T1, Type II 5α-Reductase from Human Prostate (Homo sapiens, UniProt P31213); assay: Human Type II 5α-reductase assay (conversion of [3H]-testosterone to 5α-reduced metabolites); assay type: biochemical; details: pH 5.5, 0.3 μM; sodium acetate pH 5.5, 25°, 30 min; compared to control reaction mixtures; read-out: percent inhibition of Type II AR
T1 construct: The same procedure as above was used for preparations using tissue from prostate surgery; from tissue; host or cells: human prostate tissue from surgery, homogenate, 100,000×g pellet
T1 sequence (P31213 1-254): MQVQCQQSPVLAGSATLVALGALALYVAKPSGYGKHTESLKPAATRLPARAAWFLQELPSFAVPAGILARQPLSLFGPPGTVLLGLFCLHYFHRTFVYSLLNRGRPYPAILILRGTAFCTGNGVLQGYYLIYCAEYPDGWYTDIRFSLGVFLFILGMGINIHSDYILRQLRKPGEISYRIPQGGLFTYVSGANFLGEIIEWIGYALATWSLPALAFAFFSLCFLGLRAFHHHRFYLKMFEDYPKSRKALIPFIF

[2] = biological target: T2, Type I 5α-Reductase from Human Scalp (Homo sapiens, UniProt P18405); assay: Human Type I 5α-reductase assay (conversion of [3H]-testosterone to 5α-reduced metabolites); assay type: biochemical; details: pH 7.5, 0.3 μM; 50 nM [3H]-testosterone, pH 7.5, 25°, 180 min; compared to control reaction mixtures; read-out: percent inhibition of Type I AR
T2 construct: Scalp punch biopsies from graft recipient sites were obtained from human hair transplant procedures; from tissue; host or cells: human scalp punch biopsies (hair transplant graft recipient sites), homogenate, 100,000×g pellet
T2 sequence (P18405 1-259): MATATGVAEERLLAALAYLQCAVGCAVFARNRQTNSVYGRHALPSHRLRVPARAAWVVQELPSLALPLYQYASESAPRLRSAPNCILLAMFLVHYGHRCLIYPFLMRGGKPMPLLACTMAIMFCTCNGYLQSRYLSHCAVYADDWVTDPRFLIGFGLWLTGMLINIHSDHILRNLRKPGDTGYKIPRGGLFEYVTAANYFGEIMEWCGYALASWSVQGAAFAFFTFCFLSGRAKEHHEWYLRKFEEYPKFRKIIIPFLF

SMILES: COc1ccc(-c2c(-c3ccccc3)c(Sc3ccc4c(c3)CC[C@H]3N(C)C(=O)CC[C@]43C)nc3ccccc23)cc1 [Example 179, (+)-(4aR)-(10bR)-4-methyl-8-[3-phenyl-4-(4-methoxyphenyl)-2-quinolinylthio]-10b-methyl-1,2,3,4,4a,5,6, 10b-octahydrobenzo[f]quinolin-3-one]
- inhibition at 0.3 µM [1]: 28%
- inhibition at 0.3 µM [2]: 61%

SMILES: CN1C(=O)CC[C@]2(C)c3ccc(-c4ccc(Cl)c(F)c4)cc3CC[C@@H]12 [Example 219, (+)-(4aR)-(10bR)-4-methyl-8-(4-chloro-3-fluorophenyl)-10b-methyl-1,2,3,4,4a,5,6,10b-octahydrobenzo[f]quinolin-3-one]
- inhibition at 0.3 µM [1]: 30%
- inhibition at 0.3 µM [2]: 91%

SMILES: C[C@]12CCC(=O)N[C@@H]1CCc1cc(Sc3ccc4ccccc4n3)ccc12 [Example 19, (4aR)-(10bR)-8-(2-quinolinylthio)-10b-methyl-1,2,3,4,4a,5,6,10b-octahydrobenzo[f]quinolin-3-one]
- inhibition at 0.3 µM [1]: 56%
- inhibition at 0.3 µM [2]: 59%

SMILES: COc1cccc2sc(Sc3ccc4c(c3)CC[C@H]3N(C)C(=O)CC[C@]43C)nc12 [Example 182, (+)-(4aR)-(10bR)-4-methyl-8-(4-methoxy-2-benzothiazolylthio)-10b-methyl-1,2,3,4,4a,5,6,10b-octahydrobenzo[f]quinolin-3-one]
- inhibition at 0.3 µM [1]: 100%
- inhibition at 0.3 µM [2]: 63%

SMILES: CN1C(=O)CC[C@]2(C)c3ccc(-c4ccncc4)cc3CC[C@@H]12 [Example 235, (+)-(4aR)-(10bR)-4-methyl-8-(4-pyridinyl)-10b-methyl-1,2,3,4,4a,5,6,10b-octahydrobenzo[f]quinolin-3-one]
- inhibition at 0.3 µM [1]: 12%
- inhibition at 0.3 µM [2]: 28%

SMILES: CN1C(=O)CC[C@]2(C)c3ccc(C(=O)NC(c4ccccc4)c4ccccc4)cc3CC[C@@H]12 [Example 148, (4aR)-(10bR)-4,10b-dimethyl-8-diphenylmethylcarboxamido-1,2,3,4,4a,5,6,10b-octahydrobenzo[f]quinolin-3-one]
- inhibition at 0.3 µM [1]: 12%
- inhibition at 0.3 µM [2]: 2%

SMILES: CN1C(=O)CC[C@]2(C)c3ccc(Sc4ncccn4)cc3CC[C@@H]12 [Example 151, (+)-(4aR)-(10bR)-4-methyl-8-(2-pyrimidinylthio)-10b-methyl-1,2,3,4,4a,5,6,10b-octahydrobenzo[f]quinolin-3-one]
- inhibition at 0.3 µM [1]: 28%
- inhibition at 0.3 µM [2]: 31%

SMILES: CN1C(=O)CC[C@]2(C)c3ccc(Sc4nccc5ccccc45)cc3CC[C@@H]12 [Example 113, (4aR)-(10bR)-4,10b-dimethyl-8-(1-isoquinolinylthio)-1,2,3,4,4a,5,6,10b-octahydrobenzo[f]quinolin-3-one]
- inhibition at 0.3 µM [1]: 51%
- inhibition at 0.3 µM [2]: 70%

SMILES: CN1C(=O)CC[C@]2(C)c3ccc(-c4ccc(F)c(Cl)c4)cc3CC[C@@H]12 [Example 88, (+)-(4aR)-(10bR)-4-methyl-8-(3-chloro-4-fluorophenyl)-10b-methyl-1,2,3,4,4a,5,6,10b-octahydrobenzo[f]quinolin-3-one]
- inhibition at 0.3 µM [1]: 43%
- inhibition at 0.3 µM [2]: 96%

SMILES: Cc1ccc(Sc2ccc3c(c2)CC[C@H]2N(C)C(=O)CC[C@]32C)cc1 [Example 96, (+)-(4aR)-(10bR)-4,10b-dimethyl-8-(4-methylphenylthio)-1,2,3,4,4a,5,6,10b-octahydrobenzo[f]quinolin-3-one]
- inhibition at 0.3 µM [1]: 52%
- inhibition at 0.3 µM [2]: 89%

SMILES: CN1C(=O)CC[C@]2(C)c3ccc(-c4ccc(O)c(F)c4)cc3CC[C@@H]12 [Example 28, (+)-(4aR)-(10bR)-4-methyl-8-(3-fluoro-4-hydroxyphenyl)-10b-methyl-1,2,3,4,4a,5,6,10b-octahydrobenzo[f]quinolin-3-one]
- inhibition at 0.3 µM [1]: 36%
- inhibition at 0.3 µM [2]: 65%
